Results as given in paper PMC10826971, “Evaluating protein cross-linking as a therapeutic strategy to stabilize SOD1 variants in a mouse model of familial ALS” (PLOS Biology, 2024).
Where “and” joins values, the source holds several entries; their conditions need not be identical. Equal entries are not always repeated.

How the values were obtained:
in vivo = details: C57BL/6, mouse
Experimental: (§1) Any clinical abnormalities including but not limited to ruffled fur, unstable gait, severe lethargy, and mortality was observed after dosing. The post-dose washout period was maintained for 48 h for both PO, IV, and SC route of administration.

C57BL/6 mice = test: in vivo; details: mouse
Experimental: as §1

SOD1^G93A = SOD1^G93A (Homo sapiens, UniProt P00441, G94A); test: Small-angle x-ray solution scattering (SAXS); design: made in house; host or cells: EGy118ΔSOD1 yeast, YEp351 expression vector; details: GNOM; untreated over 200 Å
SOD1^G93A, sequence (P00441 2-154 G94A limits assumed): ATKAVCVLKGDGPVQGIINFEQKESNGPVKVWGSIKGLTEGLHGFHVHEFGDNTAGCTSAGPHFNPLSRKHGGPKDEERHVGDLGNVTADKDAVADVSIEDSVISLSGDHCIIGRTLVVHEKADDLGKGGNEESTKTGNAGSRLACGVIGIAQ
Experimental: SAXS data were collected at the G1 beamline at Cornell High Energy Synchrotron Source (CHESS). For each sample, 2 measurements were taken, one of the protein with buffer and one with buffer by itself. Solution scattering data were captured every second for 10 frames. The 10 frames of both buffer and protein were then averaged and the buffer was subtracted out to get the scattering for the protein. Samples were run in a 96-well plate and held at 4°C continuously. Data collection was in the scattering angle (q) range of 0.008 to 0.71 Å^-1 and processed using the software, RAW.
Control sample contained 5% MeOH (final conc. 2.5%). Samples were then incubated at 37°C for 6 h to ensure complete cross-linking. After incubation, excess compound was buffer exchanged out of each sample using a 10 kDa MWCO ultrafiltration device, and 320 μL is diluted to 15 mL into HEPES buffer, spun down to approximately 500 μL, and resuspended in another 15 mL of HEPES buffer. After the final spin, samples were removed and concentrated in a smaller ultrafiltration device and brought to approximately 70 μL final volume (4.7 μm). Samples were flash frozen and stored at –80°C prior to analysis.
The GNOM program was used to evaluate the pair distribution plot using an indirect Fourier transform. […]

fALS SOD1 variants = test: Size exclusion chromatography (SEC) under native conditions; design: species or system human
Experimental: We have analyzed samples with and without cross-linker via SEC with high performance liquid chromatography (SEC-HPLC) to assess the SOD1 protein composition in its native state. […] For inducing aggregation, all samples (final conc. 1 μm) were incubated at 37°C for 1 h prior the SEC analysis. […] An isocratic mobile phase consisting of 100 mM sodium phosphate, 200 mM sodium chloride (pH 7.4) was used for 6 min to analyze each sample at wavelength of 280 nm. Waters BEH 200 standard was injected at the beginning, middle, and at the end to confirm the retention time was not shifting throughout the entire experiment.

[1] = tested on: NSC-34 cells expressing EGFP-WT-SOD1; test: Relative cell viability of transfected NSC-34 cells; type: cell-based, mouse; details: for Viability %: WT, 48 h, replicates
Experimental: (§2) Transfected NSC-34 cells were plated out into 96-well plates and left overnight. […] Cells were then fixed using 4% (w/v) paraformaldehyde in 1×PBS for 20 min. Plates for imaging were then processed as previously described with some changes. Cells were imaged using a DMi8 epifluorescent microscope (Leica, Germany) fitted with a Mercury Arc Lamp, a 10× 0.25NA (CAT NO) air objective and an automated stage. A software-based autofocus strategy was utilized to focus on the GFP signal within cells, with a subsequent image being taken in the DAPI channel to view Hoescht-stained nuclei. Relative focus correction was applied between channels to offset emission wavelength effects to the focal plane. Following image acquisition, images were corrected for illumination variation via a background method and processed using a combination of FIJI [66], StarDist, CellProfiler, and CellProfiler Analyst as previously described.
(§3) Image set data taken from the previous inclusion formation assay were used to examine both relative cell viability and relative levels of SOD1-EGFP. To determine relative viability, we extracted the total number of transfected cells in each treatment group and normalized the values to the untreated group to determine the relative number of cells at assay endpoint.

[2] = tested on: NSC-34 cells expressing EGFP-G93A; test: as above; type: cell-based, mouse; details: for Viability %: G93A, 48 h, replicates
Experimental: as §2, §3

[3] = as above; type: cell-based, mouse; details: mouse, 48 h, replicates
Experimental: as §2, §3

Compound `[O-][S+]1CCCCS1` (stereo not drawn) [S-XL6, 1,2-dithiane-1-oxide] has an LD50 at 48 h (in vivo; iv) of 75 mg/kg, an LD50 at 48 h (in vivo; po) of 1000 mg/kg and an LD50 at 48 h (in vivo; sc) of 275 mg/kg. For the same compound, the “mortality in up-down study” value (C57BL/6 mice; iv, 55 mg/kg) was “One mouse died”, the “mortality in up-down study” value (C57BL/6 mice; iv, 60 mg/kg) was “another mouse died” and the “mortality in up-down study” value (C57BL/6 mice; sc, 60 mg/kg) was “one mouse died”. The “Dmax of SOD1^G93A with S-XL6” value (SOD1^G93A) was “approximately 79 Å”, the “monomeric population of fALS variants after S-XL6 treatment” value (fALS SOD1 variants) was “decreased” and the “large (>1,000 kDa) aggregates after S-XL6 treatment” value (fALS SOD1 variants; all fALS variants tested) was “diminished”. For the same compound, the “viability of cells expressing EGFP-labeled wild-type SOD1” value [1] was “did not affect the viability”, the Viability % ([1]; 5 uM) was 118.019% and 98.8542% and 94.2887% and 103.364% and 96.0765% and the Viability % ([1]; 10 uM) was 120.286% and 102.188% and 99.0654% and 102.243% and 98.2897%. The Viability % ([1]; 20 uM) was 91.25% and 91.5888% and 93.8838% and 89.0342%, the “survival/viability of cells expressing EGFP-labeled G93A” value [2] was “did not affect” and the Viability % ([2]; 5 uM) was 106.323% and 98.5697% and 106.015% and 108.827%. The Viability % ([2]; 10 uM) was 107.355% and 99.404% and 108.897% and 105.562%, the Viability % ([2]; 20 uM) was 94.1936% and 84.8629% and 91.604% and 88.2709% and the viability at 48 h, 5 µM ([3]; NSC-34 cells expressing EGFP-G93A, G93A, 5 uM) was 96%. For the same compound, the viability at 48 h, 10 µM ([3]; NSC-34 cells expressing EGFP-G93A, G93A, 10 uM) was 97.2%, the viability at 48 h, 20 µM ([3]; NSC-34 cells expressing EGFP-G93A, G93A) was 83% and the viability at 48 h, 20 µM ([3]; NSC-34 cells expressing EGFP-WT-SOD1, WT) was 109%.
